Measurements taken from ChEMBL document CHEMBL1134523, “Isomerization of (Z,Z) to (E,E)1-bromo-2,5-bis-(3-hydroxycarbonyl-4-hydroxy)styrylbenzene in strong base: probes for amyloid plaques in the brain” (J Med Chem, 2001).

The compounds below were run against Amyloid-beta precursor protein (Homo sapiens, UniProt P05067) (assay: Inhibitory activity against binding of [125I]IMSB to amyloid beta in brain).
Type: tissue-based

Sequence of Amyloid-beta precursor protein (P05067 whole entry): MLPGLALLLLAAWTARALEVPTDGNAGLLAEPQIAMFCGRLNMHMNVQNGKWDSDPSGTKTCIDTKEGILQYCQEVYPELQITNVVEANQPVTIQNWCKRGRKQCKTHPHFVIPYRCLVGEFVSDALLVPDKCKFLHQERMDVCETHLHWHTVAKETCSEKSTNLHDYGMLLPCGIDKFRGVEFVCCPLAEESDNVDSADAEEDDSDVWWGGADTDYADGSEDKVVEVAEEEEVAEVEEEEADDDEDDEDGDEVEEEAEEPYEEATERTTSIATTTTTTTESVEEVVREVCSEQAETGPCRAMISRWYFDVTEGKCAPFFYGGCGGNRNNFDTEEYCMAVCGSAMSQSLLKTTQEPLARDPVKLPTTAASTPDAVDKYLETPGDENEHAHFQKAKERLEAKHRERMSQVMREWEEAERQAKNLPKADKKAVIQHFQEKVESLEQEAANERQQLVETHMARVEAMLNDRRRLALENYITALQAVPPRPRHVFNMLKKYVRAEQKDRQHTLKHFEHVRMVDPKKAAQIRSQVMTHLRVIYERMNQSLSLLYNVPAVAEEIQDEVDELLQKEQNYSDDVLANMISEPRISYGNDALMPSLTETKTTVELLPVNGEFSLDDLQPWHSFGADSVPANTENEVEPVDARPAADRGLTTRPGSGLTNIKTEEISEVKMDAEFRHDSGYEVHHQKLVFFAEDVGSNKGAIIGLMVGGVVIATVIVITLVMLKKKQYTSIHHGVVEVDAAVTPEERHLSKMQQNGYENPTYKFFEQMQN

Ki	SMILES
0.11 nM	O=C(O)c1cc(/C=C/c2ccc(/C=C/c3ccc(O)c(C(=O)O)c3)c(Br)c2)ccc1O
0.13 nM	O=C(O)c1cc(/C=C\c2ccc(/C=C\c3ccc(O)c(C(=O)O)c3)c(Br)c2)ccc1O

Continued, compound first:

SMILES	Ki
O=C(O)c1cc(/C=C\c2ccc(/C=C/c3ccc(O)c(C(=O)O)c3)cc2Br)ccc1O	0.19 nM
O=C(O)c1cc(/C=C\c2ccc(/C=C/c3ccc(O)c(C(=O)O)c3)c(Br)c2)ccc1O	0.27 nM
O=C(O)c1ccccc1O [SALICYLIC ACID]	> 1800 nM
